Source: patent US4725676A, “5-(3,5-disubstituted phenylazo)-2-hydroxybenzene-acetic acids and salts and lactones thereof having a potentially inhibitory effect on 15-hydroxy-prostaglandin dehydrogenase” (Pharmacia AB, priority 1984, dated 1988)

Tests used:
Type in all cases: biochemical
[1] = target: T1, human PGDH (Homo sapiens, UniProt P15428); assay: Inhibitory effect on human PGDH isolated from placenta; conditions: radioactively labelled prostaglandin PGF 2, read-out: 50% PGDH inhibition at a concentration of
T1 construct: human PGDH isolated from placenta; from tissue; host or cells: human placenta
T1 sequence (P15428 1-266): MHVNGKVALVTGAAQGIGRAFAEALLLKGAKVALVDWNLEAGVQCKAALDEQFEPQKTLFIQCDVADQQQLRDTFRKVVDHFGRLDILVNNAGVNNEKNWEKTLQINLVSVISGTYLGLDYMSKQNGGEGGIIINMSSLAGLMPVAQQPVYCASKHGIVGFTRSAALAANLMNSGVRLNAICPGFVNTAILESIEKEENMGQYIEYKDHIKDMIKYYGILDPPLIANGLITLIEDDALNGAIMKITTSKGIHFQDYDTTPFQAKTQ
Method: The compound of Example 2 was studied in respect of its inhibitory effect on human PGDH isolated from placenta.
(§1) Radioactively labelled prostaglandin PGF 2 was incubated with the enzyme as according to Berry, C. N. et al., Biochem. Pharmacol. 1983, Vol. 32, p. 2863.
(§2) The compound of Example 2 was added in various concentrations, and the inhibition was measured as stated above.

[2] = test system: cyclooxygenase; assay: Inhibition of cyclooxygenase; conditions: at concentrations of from 10 to 1,000 nM
[3] = target: T2, PGDH from rat colon (Rattus norvegicus, UniProt O08699); assay: Inhibition of PGDH from rat colon; conditions: similarly tested, read-out: 50% PGDH inhibition at
T2 construct: PGDH from rat colon; from tissue; host or cells: rat colon
T2 sequence (O08699 1-266): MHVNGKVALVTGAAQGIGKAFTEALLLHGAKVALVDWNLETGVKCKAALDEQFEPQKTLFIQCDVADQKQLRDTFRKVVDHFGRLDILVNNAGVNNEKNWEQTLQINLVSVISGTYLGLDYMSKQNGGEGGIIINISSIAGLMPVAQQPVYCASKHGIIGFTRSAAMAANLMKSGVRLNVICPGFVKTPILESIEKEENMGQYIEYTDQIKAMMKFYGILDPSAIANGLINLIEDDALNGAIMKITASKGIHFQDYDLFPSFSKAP
Method: as §1, §2
When similarly tested against PGDH from rat colon the compound gave 50% PGDH inhibition at 56 nM. […] It should be noted that (V) is the strongest inhibitor of this type known in the literature.

SMILES | IC50 [1] [nM] | inhibition of cyclooxygenase detected [2] | IC50 [3] [nM]
CCOC(=O)c1ccc(N=Nc2ccc(O)c(CC(=O)O)c2)cc1 [V, reference compound] | 290 |  | 
COC(=O)c1cc(N=Nc2ccc(O)c(CC(=O)O)c2)cc(C(=O)OC)c1 [Example 2, 5-(3,5-bis-(methoxycarbonyl)-phenylazo)-2-hydroxy-phenylacetic acid] | 28 | No inhibition whatever | 56
